Assay results: patent US12478602B2, “Method for treating a disorder” (priority 2023, dated 2025)
Read-outs that look alike come from different tables or passages of the source.

Columns and labels:
[1] = test system: mice having autism spectrum disorder; assay: Sociality experiment (three-chamber) in mouse model of autism spectrum disorder; assay type: in vivo; conditions: 500 mg/kg orally once a day for 2 weeks from age 3 weeks
Excerpt: (§1) Pregnant C57BL/6 mice were subcutaneously injected with valproic acid (VPA) at the time when the gestation period reached 12 days. Male mice were selected from the mice that were born from the pregnant mice that were subcutaneously injected with VPA, and these were used as animals for a mouse model of autism spectrum disorder.
(§2) Since 3-week-old mice are at the critical stage, 3-week-old normal mice and 3-week-old mice having autism spectrum disorder were subjected to a sociality experiment, a social cognition experiment, and an anxiety experiment to identify the underlying features. 500 mg/kg of L-serine (hereinafter, referred to as AST-001) was orally administered for 2 weeks to mice having autism spectrum disorder, in which the underlying features had been confirmed. The mice having autism spectrum disorder, to which AST-001 had been orally administered for 2 weeks, were again subjected to a sociality experiment, a social cognition experiment, and an anxiety experiment.
A behavioral experiment, which checks whether or not an experimental mouse moves in the direction of a social object in a case where a social object (a non-familiar mouse) and a non-social object (an empty cage) are placed in both side rooms of a three-chamber having three connected rooms, was carried out (see FIG. 1A). […]

mPFC pyramidal neurons = assay: Patch clamp of intrinsic excitability in BTBR mice; assay type: in vivo, mouse; conditions: 500 mg/kg orally for 2 weeks
Description: BTBR T+tf/J (BTBR), which is an animal of autism spectrum disorder, and C57BL/6 mice (used as a control group) were purchased from Jackson Laboratories. […] However, in a case where BTBR mice were orally administered with 500 mg/kg of AST-001 for 2 weeks, and then the firing rate of the action potential was measured, the firing rate of the action potential in the BTBR mice and the control group mice turned out to be similar (see FIG. 5B).

[2] = test system: mice having autism spectrum disorder; assay: Individual recognition (novel object recognition, NOR) experiment; assay type: in vivo, mouse; conditions: 180, 300, 480 or 600 mg/kg/day orally for 21 days; with increasing dosage
Description: Mice having autism spectrum disorder were created by the same method as in Example 1.1. The 3-week-old male mice having autism spectrum disorder were orally injected with 180, 300, 480, or 600 mg/kg/day of L-serine for 21 days and then subjected to an individual recognition test. Eight mice were used for each experimental group. Mice tend to be more interested in a novel object than a familiar object. Therefore, a novel object recognition (NOR) experiment, which is an experiment for checking whether or not mice recognize a novel object, was carried out.

[3] = Pharmacokinetic experiment in healthy adult males; assay type: in vivo, human; conditions: for AUC(0-t): read-out: average AUClast of L-serine without baseline correction
Description: (§3) 24 hours before the administration with AST-001 (main component: L-serine), blood was collected to measure the concentration of L-serine. 60 g of an AST-001 powder is a white homogeneous powder without having foreign substances, divided and repackaged into an HDPE bottle or a bottle made of the same material, and the composition of this drug is such that 1,000 mg of the main component L-serine is comprised per 1,000 mg dose. [table]

[4] = Pharmacokinetic experiment in Beagle dog; assay type: in vivo; conditions: for bioavailability / half-life: Beagle, dog, plasma; for bioavailability: po, read-out: bioavailability by the oral administration; for half-life: read-out: drug loss half-life (t1/2) (converted); for AUCinf: fasting
Description: 4 g or 8 g of L-serine was orally or intravenously administered to Beagle dogs (1.8 to 2.6 years old, 8.6 to 11.6 kg, n=20). Blood collection was divided into blood collection before L-serine administration (basal blood collection) and blood collection after administration (main blood collection). During the experiment, the Beagle dogs were maintained in a fasting state, and L-serine concentration in the plasma was analyzed by LC-MS/MS.

healthy adults = assay: Safety evaluation in healthy adults; assay type: in vivo, human; conditions: single oral up to 30 g per day; 15 g twice a day for 7 days
Description: as §3, with “[…] As a result, it was confirmed that AST-001 can be safely administered within a dose range of 10 to 30 g per day for indications that require repeated administration. The results of the pharmacokinetic analysis in the AST-001 repeated administration test in healthy adult males are as shown in Table 2 below.” for “[table]”

[5] = test system: mice having autism spectrum disorder; assay: Anxiety experiment (elevated plus maze) in mouse model of autism spectrum disorder; assay type: in vivo; conditions: 500 mg/kg orally once a day for 2 weeks; vs untreated autism spectrum disorder mouse
Excerpt: as §1, §2
For 2 weeks from the age of 3 weeks, the normal group and the autism spectrum disorder group were subjected to oral administration with water every day once a day, and in the drug group, mice having autism spectrum disorder were orally administered with 500 mg/kg of AST-001 (dissolved in water) once a day. […]

[6] = test system: pediatric patients having autism spectrum disorder; conditions: human, in vivo

With N[C@@H](CO)C(=O)O [AST-001, L-serine] as the compound, how does the “interaction time with the social object vs interaction time with the empty cage” value [1] read?
The value was “significantly higher”.

And the “preference index for the social object” value [1]?
The value was “high”.

What about the “firing rate of the action potential, BTBR mice vs control group mice” value (mPFC pyramidal neurons) of the same compound?
The value was “similar”.

What about the “discrimination index (DI)” value [2] of the same compound?
Its value is “increased”.

What about the CLss/F ([3]; 15 g twice a day for 7 days, N = 7, mean ± SD) of the same compound?
Its CLss/F is 21.97 ± 5.99 L/h.

What about the AUC ([3]; male, human, blood, oral, 15 g, 15 g twice a day for 1 week, steady state, read-out: average AUCtau of L-serine without baseline correction) of the same compound?
The AUC was roughly 883 µg·h/mL.

And the AUC ([3]; male, human, blood, oral, 15 g, 15 g twice a day for 7 days, N = 7, mean ± SD, read-out: AUCtau, ss)?
Its AUC is 729 ± 202 µg·h/mL.

And the Cmax ([3]; male, human, blood, oral, 15 g twice a day for 7 days, N = 7, mean ± SD)?
Its Cmax is 212 ± 56.2 µg/mL.

What about the Vd/F ([3]; male, human, blood, oral, 15 g twice a day for 7 days, N = 7, mean ± SD, read-out: Vz/F) of the same compound?
Its Vd/F is 348 ± 220 L.

What about the half-life ([3]; male, human, blood, oral, 15 g twice a day for 7 days, N = 7, mean ± SD, read-out: t1/2 (converted)) of the same compound?
The half-life was 11 ± 5.17 h.

What about the Tmax ([3]; male, human, blood, oral, 15 g twice a day for 7 days, N = 7, median value) of the same compound?
The Tmax was 1 h.

What about the half-life ([3]; male, human, blood, oral, read-out: average half-life of extrinsically administered L-serine) of the same compound?
Its half-life is 6.5 to 14 h.

And the AUC(0-t) ([3]; male, human, blood, oral, single administration 10 g)?
Its AUC(0-t) is 613 µg·h/mL.

And the AUC(0-t) ([3]; male, human, blood, oral, single administration 20 g)?
The AUC(0-t) was 1130 µg·h/mL.

And the AUC(0-t) ([3]; male, human, blood, oral, single administration 30 g)?
The AUC(0-t) was 1530 µg·h/mL.

What about the half-life ([3]; male, human, blood, po, 15 g orally twice a day for 7 days, steady state, read-out: average half-life (converted)) of the same compound?
The half-life was roughly 11 h.

And the “Cmax, AUClast, and AUCinf with increasing dosage” value ([3]; single oral 10 g, 15 g, 20 g or 30 g)?
The value was “linearly increased”.

What about the average accumulation index ([3]; steady state vs single administration with 15 g) of the same compound?
The average accumulation index was “about 1.7 times”.

What about the bioavailability ([4]; 4 g per individual) of the same compound?
The bioavailability was 106%.

What about the bioavailability ([4]; 8 g per individual) of the same compound?
The bioavailability was 84.2%.

What about the half-life ([4]; oral 4 g) of the same compound?
The half-life was 3.8 ± 1.4 h.

What about the half-life ([4]; oral 8 g) of the same compound?
The half-life was 4.7 ± 1.8 h.

What about the AUCinf ([4]; oral 4 g) of the same compound?
Its AUCinf is 628 ± 108 µg·h/mL.

What about the AUCinf ([4]; oral 8 g) of the same compound?
The AUCinf was 1330 µg·h/mL.

What about the “safety and drug tolerance” value (healthy adults) of the same compound?
Its value is “excellent safety and drug tolerance”.

What about the “time staying in the closed-arm space of the elevated plus maze” value [5] of the same compound?
The value was “short time”.

What about the “time staying in the open-arm space of the elevated plus maze” value [5] of the same compound?
Its value is “remarkably long time”.

And the “Adverse event [TEAE], Events” value [6]?
Its value is 41.
